Here are results for 11 compounds from patent US10300060B2, “Trk-inhibiting compound” (ONO PHARMACEUTICAL CO., LTD., priority 2013, dated 2019).

In assay [1] the test system is sodium monoiodoacetate-induced model rats. Put plainly: Analgesic effect on sodium monoiodoacetate-induced model rats. To be noted: MIA-induced model rats, test substance orally twice a day day 14 to 23, day 24 3 hours before measurement, right hind limb weight load ratio. It is filed as in vivo, rat.
In another assay the target is KDR (Homo sapiens (Human), UniProt P35968). As to the kind of experiment: Enzyme-inhibiting activity test of kinases other than Trk (selectivity experiment): KDR. It is filed as biochemical. The following applies: concentration of 3 μM; read-out: Inhibition rate (%) KDR. As to the method:
(§1) A test substance (the present compound) was dissolved in dimethylsulfoxide to prepare a 100-fold concentration of the test concentration, 3 μM. The solution was further diluted to 25-fold with an assay buffer (20 mM HEPES, 0.01% Triton X-100, 2 mM DTT, pH 7.5) to obtain a test substance solution. In a similar manner a positive control substance solution was prepared with a positive control substance.
(§2) A 4-times concentration solution (5 μL) of the test substance prepared with the assay buffer, 5 μL of a 4-times concentration solution of substrate/ATP/metal (Mg) and 10 μL of a 2-times concentration solution of kinase were mixed in a well of a polypropylene 384-well plate and allowed to react at room temperature for 1 hour. The reaction was terminated by adding 60 μL of a Termination Buffer (QuickScout Screening Assist MSA; Carna Biosciences). The substrate peptide and the phosphorylated peptide in the reaction solution were separated and quantified. The kinase reaction was assessed from the product ratio (P/(P+S)) calculated from the height (S) of the peak of the substrate peptide and the height (P) of the peak of the phosphorylated peptide. Other kinases used in the kinase selectivity experiments were, for example, b-Raf and KDR. The following Table 3 indicates substrates, substrate concentrations, ATP concentrations and positive control substances used in respective kinase enzyme inhibition activity tests.

A further assay deals with b-Raf (Homo sapiens (Human), UniProt P15056). Put plainly: Enzyme-inhibiting activity test of kinases other than Trk (selectivity experiment): b-Raf. It is filed as biochemical. To be noted: concentration of 3 μM; read-out: Inhibition rate (%) b-Raf. The protocol:
as §1, §2

[2] abbreviates: experiment with tramadol as positive control.
The mark [3] stands for this setting: experiment with morphine as positive control.

Sequence of b-Raf (P15056 whole entry, species assumed): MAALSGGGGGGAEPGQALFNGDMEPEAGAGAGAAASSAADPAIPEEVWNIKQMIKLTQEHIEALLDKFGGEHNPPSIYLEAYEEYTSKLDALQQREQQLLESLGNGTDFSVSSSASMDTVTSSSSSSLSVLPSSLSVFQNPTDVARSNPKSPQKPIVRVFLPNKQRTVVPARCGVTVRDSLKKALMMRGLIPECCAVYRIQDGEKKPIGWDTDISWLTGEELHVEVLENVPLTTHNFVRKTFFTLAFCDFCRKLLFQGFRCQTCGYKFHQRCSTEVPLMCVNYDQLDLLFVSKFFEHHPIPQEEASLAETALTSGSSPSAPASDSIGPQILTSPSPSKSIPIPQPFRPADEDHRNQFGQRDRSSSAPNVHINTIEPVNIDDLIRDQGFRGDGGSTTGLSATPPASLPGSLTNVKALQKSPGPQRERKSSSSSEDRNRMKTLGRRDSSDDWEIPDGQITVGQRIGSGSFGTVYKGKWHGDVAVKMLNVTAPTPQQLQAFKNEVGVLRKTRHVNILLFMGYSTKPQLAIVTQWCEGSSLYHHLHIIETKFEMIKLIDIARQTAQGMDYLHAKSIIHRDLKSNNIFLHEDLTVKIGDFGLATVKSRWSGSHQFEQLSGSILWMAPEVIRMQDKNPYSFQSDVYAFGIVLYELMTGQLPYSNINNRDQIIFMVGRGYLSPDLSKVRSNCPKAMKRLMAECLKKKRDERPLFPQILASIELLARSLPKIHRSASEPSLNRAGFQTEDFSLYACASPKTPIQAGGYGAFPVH
Sequence of KDR (P35968 20-1356, species assumed): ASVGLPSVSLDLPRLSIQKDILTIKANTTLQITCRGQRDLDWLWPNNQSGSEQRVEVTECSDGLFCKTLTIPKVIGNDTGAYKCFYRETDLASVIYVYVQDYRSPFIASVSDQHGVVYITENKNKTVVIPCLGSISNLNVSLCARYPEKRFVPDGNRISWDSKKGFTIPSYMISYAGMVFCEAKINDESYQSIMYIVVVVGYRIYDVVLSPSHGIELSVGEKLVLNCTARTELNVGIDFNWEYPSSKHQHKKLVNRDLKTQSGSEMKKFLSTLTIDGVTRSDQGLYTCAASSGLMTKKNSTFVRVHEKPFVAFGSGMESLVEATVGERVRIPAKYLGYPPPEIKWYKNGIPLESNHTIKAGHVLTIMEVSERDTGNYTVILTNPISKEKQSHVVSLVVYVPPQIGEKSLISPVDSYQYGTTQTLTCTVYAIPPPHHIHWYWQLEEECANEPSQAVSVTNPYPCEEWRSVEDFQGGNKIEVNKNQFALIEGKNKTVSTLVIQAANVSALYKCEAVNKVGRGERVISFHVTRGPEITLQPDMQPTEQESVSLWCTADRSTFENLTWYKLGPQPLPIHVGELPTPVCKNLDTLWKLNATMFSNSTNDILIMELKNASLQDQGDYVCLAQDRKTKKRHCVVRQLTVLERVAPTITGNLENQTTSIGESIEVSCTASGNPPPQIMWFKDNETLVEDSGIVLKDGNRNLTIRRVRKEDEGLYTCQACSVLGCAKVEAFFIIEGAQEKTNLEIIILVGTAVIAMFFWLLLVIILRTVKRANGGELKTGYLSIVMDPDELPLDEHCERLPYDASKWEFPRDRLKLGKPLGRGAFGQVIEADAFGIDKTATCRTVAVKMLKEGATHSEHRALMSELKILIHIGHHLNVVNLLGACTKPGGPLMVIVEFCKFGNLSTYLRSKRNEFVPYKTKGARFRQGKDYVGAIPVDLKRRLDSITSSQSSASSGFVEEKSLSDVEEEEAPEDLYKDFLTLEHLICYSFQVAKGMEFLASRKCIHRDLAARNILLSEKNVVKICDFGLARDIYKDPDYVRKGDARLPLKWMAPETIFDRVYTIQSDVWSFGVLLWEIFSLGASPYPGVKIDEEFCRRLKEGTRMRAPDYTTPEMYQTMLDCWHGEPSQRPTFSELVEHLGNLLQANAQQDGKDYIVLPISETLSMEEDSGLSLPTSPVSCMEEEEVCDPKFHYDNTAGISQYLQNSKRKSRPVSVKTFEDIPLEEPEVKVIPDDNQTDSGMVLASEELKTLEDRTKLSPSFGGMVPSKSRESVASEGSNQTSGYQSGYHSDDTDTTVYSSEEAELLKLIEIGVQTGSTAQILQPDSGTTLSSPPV

As for `Cc1cn(-c2ccc(C(F)(F)F)cc2NC(=O)Nc2cnc(Oc3ccc(-c4cc(Cl)cnc4N)cc3)nc2)nn1` [Example 8-1, 1-(2-(4-(2-amino-5-chloropyridin-3-yl)phenoxy)pyrimidin-5-yl)-3-(2-(4-methyl-1H-1,2,3-triazol-1-yl)-5-(trifluoromethyl)phenyl)urea], the “Percent improvement (%)” value in assay [1] (setting [2]) stood at 60%. Moreover, the inhibition at 3 µM at KDR was found to be 0%; on b-Raf, 6.5%.

In the case of `Nc1ncc(Cl)cc1-c1ccc(Oc2ncc(NC(=O)Nc3cc(C(F)(F)F)ccc3-c3ccccc3)cn2)cc1` [Example 15-55, 1-{2-[4-(2-amino-5-chloro-3-pyridinyl)phenoxy]-5-pyrimidinyl}-3-[4-(trifluoromethyl)-2-biphenylyl]urea], in assay [1] (setting [3]), the “Percent improvement (%)” value is listed as 62%. Further, the results for the inhibition at 3 µM at KDR and at b-Raf were 0% and 30%, respectively.

For `Nc1ncc(F)cc1-c1ccc(Oc2ncc(NC(=O)Nc3cc(C(F)(F)F)ccc3-n3ccnn3)cn2)cc1` [Example 14-5, 1-(2-(1H-1,2,3-triazol-1-yl)-5-(trifluoromethyl)phenyl)-3-(2-(4-(2-amino-5-fluoropyridin-3-yl)phenoxy)pyrimidin-5-yl)urea], the “Percent improvement (%)” value in assay [1] (setting [2]) came to 47%. Also, the inhibition at 3 µM at KDR turned out to be 0%; at b-Raf it was 13%.

With `CN(C)c1ccn2ncc(-c3ccc(Oc4ncc(NC(=O)Nc5cc(C(F)(F)F)ccc5-c5cccnc5)cn4)cc3)c2n1` [Example 21-37], in assay [1] (setting [3]), the “Percent improvement (%)” value is 67%. The results for the inhibition at 3 µM on KDR and on b-Raf were 16% and 50%, respectively.

For `Nc1ncc(F)cc1-c1ccc(Oc2ncc(NC(=O)Nc3cc(C(F)(F)F)ccc3-c3cccnc3)cn2)cc1` [Example 14-6, 1-(2-(4-(2-amino-5-fluoropyridin-3-yl)phenoxy)pyrimidin-5-yl)-3-(2-(pyridin-3-yl)-5-(trifluoromethyl)phenyl)urea], in assay [1] (setting [3]), the “Percent improvement (%)” value was 53%. The inhibition at 3 µM was determined as 1.7% on KDR and 45% at b-Raf.

In the case of `Nc1ncc(C(F)(F)F)cc1-c1ccc(Oc2ncc(NC(=O)Nc3cc(C(F)(F)F)ccc3-n3ccc(C(F)(F)F)n3)cn2)cc1` [Example 15-52, 1-(2-{4-[2-amino-5-(trifluoromethyl)-3-pyridinyl]phenoxyl}-5-pyrimidinyl)-3-{5-(trifluoromethyl)-2-[3-(trifluoromethyl)-1H-pyrazol-1-yl]phenyl}urea], the “Percent improvement (%)” value in assay [1] (setting [3]) stood at 60%. Further, the inhibition at 3 µM on KDR was determined as 0%; on b-Raf, 20%.

As for `CN(C)c1ccn2ncc(-c3ccc(Oc4ncc(NC(=O)Nc5cc(C(F)(F)F)ccc5-c5ccccc5)cn4)cc3)c2n1` [Example 21-70, 1-(2-{4-[5-(dimethylamino)pyrazolo[1,5-a]pyrimidin-3-yl]phenoxyl}-5-pyrimidinyl)-3-[4-(trifluoromethyl)-2-biphenylyl]urea], the “Percent improvement (%)” value in assay [1] (setting [3]) is 61%. For the same compound, the figures for the inhibition at 3 µM on KDR and on b-Raf were 0% and 19%, respectively.

As to `Nc1ncc(Cl)cc1-c1ccc(Oc2ncc(NC(=O)Nc3ccc(C(F)(F)F)cc3C(F)(F)F)cn2)cc1` [Example 15-77, 1-{2-[4-(2-amino-5-chloro-3-pyridinyl)phenoxy]-5-pyrimidinyl}-3-[2,4-bis(trifluoromethyl)phenyl]urea], the “Percent improvement (%)” value in assay [1] (setting [3]) turned out to be 55%. For the same compound, the inhibition at 3 µM at KDR stood at 0%; at b-Raf, 32%.

Consider `Nc1ncc(Cl)cc1-c1ccc(Oc2ncc(NC(=O)Nc3ccc(C(F)(F)F)cc3Cl)cn2)cc1` [Example 15-6, 1-(2-(4-(2-amino-5-chloropyridin-3-yl)phenoxy)pyrimidin-5-yl)-3-(2-chloro-4-(trifluoromethyl)phenyl)urea], for which the “Percent improvement (%)” value in assay [1] (setting [2]) was 51%. Also, the inhibition at 3 µM on KDR is 0%; at b-Raf, 37%.

Take `Nc1ncc(Cl)cc1-c1ccc(Oc2ncc(NC(=O)Nc3cc(C(F)(F)F)ccc3-n3cccn3)cn2)cc1` [Example 7, 1-(2-(1H-pyrazol-1-yl)-5-(trifluoromethyl)phenyl)-3-(2-(4-(2-amino-5-chloropyridin-3-yl)phenoxy)pyrimidin-5-yl)urea]: the “Percent improvement (%)” value in assay [1] (setting [2]) turned out to be 61%. In addition, the inhibition at 3 µM was determined as 0% at KDR and 40% on b-Raf.

Take `CS(=O)(=O)c1ccc(C(F)(F)F)cc1NC(=O)Nc1cnc(Oc2ccc(-c3cc(Cl)cnc3N)cc2)nc1` [Example 15-104, 1-{2-[4-(2-amino-5-chloro-3-pyridinyl)phenoxy]-5-pyrimidinyl}-3-[2-(methylsulfonyl)-5-(trifluoromethyl)phenyl]urea]: in assay [1] (setting [3]), the “Percent improvement (%)” value turned out to be 54%. For the same compound, the inhibition at 3 µM on KDR worked out at 18%; on b-Raf it was 53%.

What is called inhibition is how much of the control response was suppressed.
